ChEMBL document CHEMBL1201862, “PubChem BioAssay data set” (2004)
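Following 48 hours of exposure in 96-well plates, responses at five concentrations were used to interpolate endpoints linearly. GI50: concentration for 50% inhibition of growth.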 Activity calls are given as the source filed them. No stated cut-off is given here; in the data, active = GI50 up to about 1.1 µM and inactive = higher.

Experiments:
Experiment in all cases: NCI tumour cell line growth inhibition, 48 h
COLO 205 = system: COLO 205
LOX IMVI = system: LOX IMVI
U-251 = system: U-251
MDA-N = system: MDA-N
RPMI-8226 = system: RPMI-8226
PC-3 = system: PC-3
OVCAR-5 = system: OVCAR-5
MOLT-4 = system: MOLT-4
BT-549 = system: BT-549
SN12C = system: SN12C
ACHN = system: ACHN
HOP-62 = system: HOP-62
786-0 = system: 786-0
SF-295 = system: SF-295
NCI-H226 = system: NCI-H226
UO-31 = system: UO-31
NCI-H460 = system: NCI-H460
TK-10 = system: TK-10
OVCAR-3 = system: OVCAR-3
SR = system: SR
UACC-257 = system: UACC-257
SF-268 = system: SF-268
HCC 2998 = system: HCC 2998
SNB-19 = system: SNB-19
IGROV-1 = system: IGROV-1
MCF7 = system: MCF7
MDA-MB-231 = system: MDA-MB-231
HL-60 = system: HL-60
CAKI-1 = system: CAKI-1
HT-29 = system: HT-29
CCRF-CEM = system: CCRF-CEM
SK-MEL-28 = system: SK-MEL-28
SF-539 = system: SF-539
OVCAR-8 = system: OVCAR-8
MDA-MB-435 = system: MDA-MB-435
T47D = system: T47D
A498 = system: A498
NCI-H23 = system: NCI-H23
K562 = system: K562
EKVX = system: EKVX
HOP-92 = system: HOP-92
NCI-H522 = system: NCI-H522
DU-145 = system: DU-145
A549 = system: A549
SK-OV-3 = system: SK-OV-3
SK-MEL-5 = system: SK-MEL-5
HCT-116 = system: HCT-116
M14 = system: M14
Hs-578T = system: Hs-578T
SK-MEL-2 = system: SK-MEL-2
HCT-15 = system: HCT-15
OVCAR-4 = system: OVCAR-4
SW-620 = system: SW-620
UACC-62 = system: UACC-62
Malme-3M = system: Malme-3M
NCI/ADR-RES = system: NCI/ADR-RES

How did the GI50 (COLO 205) turn out when c1ccc(C2OCC(OC3CCCCO3)CO2)cc1 (stereo unspecified) was run?
The GI50 was > 100 µM (inactive).

What about the GI50 (LOX IMVI) of the same compound?
The GI50 was > 100 µM (inactive).

And the GI50 (U-251)?
Its GI50 is > 100 µM (inactive).

What about the GI50 (MDA-N) of the same compound?
The GI50 was > 100 µM (inactive).

And the GI50 (RPMI-8226)?
Its GI50 is > 100 µM (inactive).

And the GI50 (PC-3)?
The GI50 was > 100 µM (inactive).

And the GI50 (OVCAR-5)?
The GI50 was > 100 µM (inactive).

And the GI50 (MOLT-4)?
The GI50 was 5.24 µM (inactive).

What about the GI50 (BT-549) of the same compound?
The GI50 was > 100 µM (inactive).

What about the GI50 (SN12C) of the same compound?
The GI50 was > 100 µM (inactive).

What about the GI50 (ACHN) of the same compound?
Its GI50 is > 100 µM (inactive).

What about the GI50 (HOP-62) of the same compound?
Its GI50 is > 100 µM (inactive).

And the GI50 (786-0)?
The GI50 was > 100 µM (inactive).

And the GI50 (SF-295)?
Its GI50 is > 100 µM (inactive).

And the GI50 (NCI-H226)?
The GI50 was > 100 µM (inactive).

What about the GI50 (UO-31) of the same compound?
The GI50 was 75.5 µM (inactive).

What about the GI50 (NCI-H460) of the same compound?
The GI50 was > 100 µM (inactive).

And the GI50 (TK-10)?
Its GI50 is > 100 µM (inactive).

And the GI50 (OVCAR-3)?
The GI50 was > 100 µM (inactive).

And the GI50 (SR)?
The GI50 was > 100 µM (inactive).

What about the GI50 (UACC-257) of the same compound?
The GI50 was > 100 µM (inactive).

And the GI50 (SF-268)?
Its GI50 is > 100 µM (inactive).

What about the GI50 (HCC 2998) of the same compound?
The GI50 was > 100 µM (inactive).

What about the GI50 (SNB-19) of the same compound?
Its GI50 is > 100 µM (inactive).

And the GI50 (IGROV-1)?
Its GI50 is > 100 µM (inactive).

What about the GI50 (MCF7) of the same compound?
Its GI50 is > 100 µM (inactive).

And the GI50 (MDA-MB-231)?
The GI50 was > 100 µM (inactive).

And the GI50 (HL-60)?
The GI50 was > 100 µM (inactive).

And the GI50 (CAKI-1)?
Its GI50 is > 100 µM (inactive).

What about the GI50 (HT-29) of the same compound?
Its GI50 is > 100 µM (inactive).

What about the GI50 (CCRF-CEM) of the same compound?
Its GI50 is > 10 µM (inactive).

And the GI50 (SK-MEL-28)?
Its GI50 is > 100 µM (inactive).

And the GI50 (SF-539)?
The GI50 was > 100 µM (inactive).

And the GI50 (OVCAR-8)?
The GI50 was > 100 µM (inactive).

And the GI50 (MDA-MB-435)?
Its GI50 is > 100 µM (inactive).

What about the GI50 (T47D) of the same compound?
The GI50 was > 100 µM (inactive).

And the GI50 (A498)?
Its GI50 is > 100 µM (inactive).

What about the GI50 (NCI-H23) of the same compound?
Its GI50 is > 100 µM (inactive).

What about the GI50 (K562) of the same compound?
The GI50 was > 100 µM (inactive).

What about the GI50 (EKVX) of the same compound?
Its GI50 is > 100 µM (inactive).

And the GI50 (HOP-92)?
The GI50 was > 100 µM (inactive).

And the GI50 (NCI-H522)?
The GI50 was > 100 µM (inactive).

What about the GI50 (DU-145) of the same compound?
Its GI50 is > 100 µM (inactive).

What about the GI50 (A549) of the same compound?
The GI50 was > 100 µM (inactive).

And the GI50 (SK-OV-3)?
The GI50 was > 100 µM (inactive).

And the GI50 (SK-MEL-5)?
Its GI50 is > 100 µM (inactive).

What about the GI50 (HCT-116) of the same compound?
Its GI50 is > 100 µM (inactive).

And the GI50 (M14)?
Its GI50 is > 100 µM (inactive).

What about the GI50 (Hs-578T) of the same compound?
Its GI50 is 2.36 µM (inactive).

What about the GI50 (SK-MEL-2) of the same compound?
The GI50 was > 100 µM (inactive).

And the GI50 (HCT-15)?
The GI50 was greater than 100 µM.

What about the GI50 (OVCAR-4) of the same compound?
Its GI50 is > 100 µM (inactive).

And the GI50 (SW-620)?
Its GI50 is > 100 µM (inactive).

And the GI50 (UACC-62)?
The GI50 was > 100 µM (inactive).

And the GI50 (Malme-3M)?
The GI50 was > 100 µM (inactive).

And the GI50 (NCI/ADR-RES)?
Its GI50 is > 100 µM (inactive).
